Experimental data reported in ChEMBL document CHEMBL4680316, “JNK selective inhibitor, IQ-1S, protects the mice against lipopolysaccharides-induced sepsis” (2021).
Active and inactive are the calls of the source. The rule behind the calls is not given here.

Experiments:
[1] = tested on: Mus musculus; assay: Antiinflammatory activity in C57BL/6 mouse model of LPS-induced sepsis assessed as CD4 cells in spleen at 200 ug, iv administered 2 hrs after LPS administration and measured after 10 hrs of post LPS administration by flow cytometry analysis (reference value: 23.8 %); type: functional; details: dose 200 µg; time 8 hrs
[2] = tested on: BMDM; assay: Induction of IL-4-induced polarization of C57BL/6 mouse BMDM cells to M2 assessed as Mrc mRNA expression at 1 uM pretreated for 1 hr by qRT-PCR analysis; type: functional, cell-based
[3] = tested on: Mus musculus; assay: Antiinflammatory activity in C57BL/6 mouse model of LPS-induced sepsis assessed as macrophages in spleen at 200 ug, iv administered 2 hrs after LPS administration and measured after 10 hrs of post LPS administration by flow cytometry analysis (reference value: 9.69 %); type: functional; details: dose 200 µg; time 8 hrs
[4] = tested on: BMDM; assay: Inhibition of JNK signalling in LPS-induced sepsis wild type C57BL/6 mouse BMDM cells assessed as reduction in IKKbeta phosphorylation at 1 uM pretreated for 1 hr by Western blot assay; type: cell-based
[5] = tested on: BMDM; assay: Antiinflammatory activity in CpG-induced sepsis C57BL/6 mouse BMDM cells harboring JNK assessed as reduction in Nos2 mRNA expression at 1 uM pretreated for 1 hr by qRT-PCR analysis; type: functional, cell-based
[6] = tested on: BMDM; assay: Antiinflammatory activity in LPS-induced sepsis C57BL/6 mouse BMDM cells assessed as reduction in IL-1beta mRNA expression at 1 uM treated 1 hr before LPS stimulation and measured after 2 and 6 hrs by qRT-PCR analysis; type: functional, cell-based; details: time 2-6 hrs
[7] = tested on: Mus musculus; assay: Antiinflammatory activity in C57BL/6 mouse model of LPS-induced sepsis assessed as CD8+ cells in spleen at 200 ug, iv administered 2 hrs after LPS administration and measured after 10 hrs of post LPS administration by flow cytometry analysis (reference value: 13 %); type: functional; details: dose 200 µg; time 8 hrs
[8] = tested on: BMDM; assay: Antiinflammatory activity in CpG-induced sepsis C57BL/6 mouse BMDM cells assessed as reduction in IL-6 secretion at 1 uM treated 1 hr before CpG stimulation and measured after 12 and 24 hrs by ELISA; type: functional, cell-based; details: time 12-24 hrs
[9] = tested on: Mus musculus; assay: Antiinflammatory activity in C57BL/6 mouse model of LPS-induced sepsis assessed as neutrophils in spleen at 200 ug, iv administered 2 hrs after LPS administration and measured after 10 hrs of post LPS administration by flow cytometry analysis (reference value: 24.8 %); type: functional; details: dose 200 µg; time 8 hrs
[10] = tested on: Mus musculus; assay: (§1) Antiinflammatory activity in wild type C57BL/6 mouse model of LPS and D-galactosamine-induced sepsis assessed as decrease in serum IL-6 level at 50 to 200 ug, ip administered 2 hrs after LPS and D-galactosamine administration and measured after 10 hrs of post LPS administration by ELISA; type: functional, organism-based; details: dose 50-200 µg, time 8.0 hrs
[11] = tested on: BMDM; assay: Inhibition of JNK signalling in LPS-induced sepsis wild type C57BL/6 mouse BMDM cells assessed as reduction in p38 phosphorylation at 1 uM pretreated for 1 hr by Western blot assay; type: cell-based
[12] = tested on: BMDM; assay: Antiinflammatory activity in LPS-induced sepsis C57BL/6 mouse BMDM cells assessed as reduction in IL-1beta secretion at 1 uM treated 1 hr before LPS stimulation and measured after 12 and 24 hrs by ELISA; type: functional, cell-based; details: time 12-24 hrs
[13] = tested on: BMDM; assay: Inhibition of JNK signalling in LPS-induced sepsis wild type C57BL/6 mouse BMDM cells assessed as reduction in NF-kappaB expression at 1 uM pretreated for 1 hr by Western blot assay; type: cell-based
[14] = tested on: BMDM; assay: Antiinflammatory activity in CpG-induced sepsis C57BL/6 mouse BMDM cells harboring JNK assessed as reduction in IL-6 mRNA expression at 1 uM pretreated for 1 hr by qRT-PCR analysis; type: functional, cell-based
[15] = tested on: BMDM; assay: Antiinflammatory activity in LPS-induced sepsis C57BL/6 mouse BMDM cells assessed as reduction in IL-6 mRNA expression at 1 uM treated 1 hr before LPS stimulation and measured after 2 and 6 hrs by qRT-PCR analysis; type: functional, cell-based; details: time 2-6 hrs
[16] = tested on: Mus musculus; assay: Antiinflammatory activity in wild type C57BL/6 mouse model of LPS and D-galactosamine-induced sepsis assessed as decrease in serum TNF-alpha level at 50 to 200 ug, ip administered 2 hrs after LPS and D-galactosamine administration and measured after 10 hrs of post LPS administration by ELISA; type: functional, organism-based; details: dose 50-200 µg, time 8.0 hrs
[17] = tested on: BMDM; assay: Antiinflammatory activity in CpG-induced sepsis C57BL/6 mouse BMDM cells assessed as reduction in TNF-alpha mRNA expression at 1 uM treated 1 hr before CpG stimulation by qRT-PCR analysis; type: functional, cell-based
[18] = tested on: BMDM; assay: Antiinflammatory activity in CpG-induced sepsis C57BL/6 mouse BMDM cells assessed as reduction in TNF-alpha secretion at 1 uM treated 1 hr before CpG stimulation and measured after 12 and 24 hrs by ELISA; type: functional, cell-based; details: time 12-24 hrs
[19] = tested on: BMDM; assay: Antiinflammatory activity in CpG-induced sepsis C57BL/6 mouse BMDM cells assessed as reduction in IL-6 mRNA expression at 1 uM treated 1 hr before CpG stimulation by qRT-PCR analysis; type: functional, cell-based
[20] = tested on: BMDM; assay: Antiinflammatory activity in LPS-induced sepsis C57BL/6 mouse BMDM cells assessed as reduction in IL-6 secretion at 1 uM treated 1 hr before LPS stimulation and measured after 12 and 24 hrs by ELISA; type: functional, cell-based; details: time 12-24 hrs
[21] = tested on: BMDM; assay: Antiinflammatory activity in CpG-induced sepsis C57BL/6 mouse BMDM cells assessed as reduction in IL-1beta mRNA expression at 1 uM treated 1 hr before CpG stimulation by qRT-PCR analysis; type: functional, cell-based
[22] = tested on: BMDM; assay: Antiinflammatory activity in LPS-induced sepsis C57BL/6 mouse BMDM cells assessed as reduction in TNF-alpha secretion at 1 uM treated 1 hr before LPS stimulation and measured after 12 and 24 hrs by ELISA; type: functional, cell-based; details: time 12-24 hrs
[23] = tested on: BMDM; assay: Inhibition of JNK signalling in LPS-induced sepsis wild type C57BL/6 mouse BMDM cells assessed as reduction in JNK-2 phosphorylation at 1 uM pretreated for 1 hr by Western blot assay; type: cell-based
[24] = tested on: BMDM; assay: Inhibition of JNK signalling in LPS-induced sepsis wild type C57BL/6 mouse BMDM cells assessed as reduction in IkappaBalpha phosphorylation at 1 uM pretreated for 1 hr by Western blot assay; type: cell-based
[25] = tested on: Mus musculus; assay: Antiinflammatory activity in wild type C57BL/6 mouse model of LPS and D-galactosamine-induced sepsis assessed as survival of organism at 50 to 200 ug, iv administered 2 hrs before LPS and D-galactosamine administration and observed for 20 hrs; type: functional, organism-based; details: dose 50-200 µg, time 22.0 hrs
[26] = tested on: Mus musculus; assay: as §1, with “area of immune cells in lungs” for “serum IL-6 level”, “H and E staining based imaging analysis” for “ELISA”; type: functional, organism-based; details: dose 50-200 µg, time 8.0 hrs
[27] = tested on: Mus musculus; assay: Antiinflammatory activity in wild type C57BL/6 mouse model of LPS and D-galactosamine-induced sepsis assessed as decrease in serum IL-1beta level at 50 to 200 ug, ip administered 2 hrs after LPS and D-galactosamine administration and measured after 10 hrs of post LPS administration by ELISA; type: functional, organism-based; details: dose 50-200 µg, time 8.0 hrs
[28] = tested on: BMDM; assay: Antiinflammatory activity in LPS-induced sepsis C57BL/6 mouse BMDM cells assessed as reduction in TNF-alpha mRNA expression at 1 uM treated 1 hr before LPS stimulation and measured after 2 and 6 hrs by qRT-PCR analysis; type: functional, cell-based; details: time 2-6 hrs
[29] = tested on: BMDM; assay: Inhibition of JNK signalling in LPS-induced sepsis wild type C57BL/6 mouse BMDM cells assessed as reduction in AP-1 expression at 1 uM pretreated for 1 hr by Western blot assay; type: cell-based
[30] = tested on: BMDM; assay: Antiinflammatory activity in CpG-induced sepsis C57BL/6 mouse BMDM cells assessed as reduction in IL-1beta secretion at 1 uM treated 1 hr before CpG stimulation and measured after 12 and 24 hrs by ELISA; type: functional, cell-based; details: time 12-24 hrs
[31] = tested on: BMDM; assay: Induction of IL-4-induced polarization of C57BL/6 mouse BMDM cells to M2 assessed as Arg mRNA expression at 1 uM pretreated for 1 hr by qRT-PCR analysis; type: functional, cell-based
[32] = tested on: BMDM; assay: Antiinflammatory activity in CpG-induced sepsis C57BL/6 mouse BMDM cells harboring JNK assessed as reduction in TNF mRNA expression at 1 uM pretreated for 1 hr by qRT-PCR analysis; type: functional, cell-based

SMILES: [Na+].[O-]/N=C1/c2ccccc2-c2nc3ccccc3nc21
- Activity [1]: 17.2%
- Activity [2]: inactive
- Activity [3]: 8.6%
- inhibition [4]: Active
- Activity [5]: Active
- Activity [6]: Active
- Activity [7]: 9.2%
- Activity [8]: Active
- Activity [9]: 18.8%
- Activity [10]: Active
- inhibition [11]: Active
- Activity [12]: Active
- inhibition [13]: inactive
- Activity [14]: Active
- Activity [15]: Active
- Activity [16]: Active
- Activity [17]: Active
- Activity [18]: Active
- Activity [19]: Active
- Activity [20]: Active
- Activity [21]: Active
- Activity [22]: Active
- inhibition [23]: Active
- inhibition [24]: Active
- Activity [25]: Active
- Activity [26]: Active
- Activity [27]: Active
- Activity [28]: Active
- inhibition [29]: Active
- Activity [30]: Active
- Activity [31]: inactive
- Activity [32]: Active
